Laboratory results taken from patent US20110245340A1, “Screening Method for Identifying Patients at Risk of Adverse Hepatologic Events” (priority 2009, published 2011).

What was measured:
[1] = Hepatic events / ALT elevations in combined dataset of diabetes mellitus patients, before use of the risk identification tool; assay type: in vivo, human; conditions: for Number of Patients ALT 3X to ≦ 5X ULN With TBL ≦ 2X ULN: diabetes patients; for Percent of Hepatic Events: of 24 events
Method: Analyses were conducted to identify potential risk factors for drug-induced liver toxicity in clinical studies of the monosuccinic acid ester of probucol (AGI-1067). AGI-1067 represents a new class of therapies targeting certain chronic diseases such as type II diabetes mellitus and atherosclerosis. AGI-1067 functions both as a direct antioxidant and an inducer of endogenous, antioxidant processes such as hemeoxygenase-1 and thioredoxin.
There were 36 patients who had peak elevations of ATL between 3× and ≦5× ULN in the combined dataset of diabetes mellitus patients. […] ALT levels therefore appear to have limited value in assessing potential for hepatotoxicity.
There were 24 diabetes patients in the combined dataset who had hepatic events as using a criteria of either ALT >5× ULN plus TBL <2× ULN or ALT >3× ULN plus TBL >2× ULN criteria. At randomization, 57% of the patients were in the AGI-1067 arm and 43% were in the placebo arm resulting in an AGI-1067 to placebo ratio of 1.3. Of the 24 hepatic events, 17 occurred in AGI-1067 treated patients and 7 occurred in placebo treated patients. […]

[2] = Hepatic events in combined dataset of type 2 diabetes mellitus patients using the risk identification tool (exclusion by ApoA1 > ULN or ALT > 2X ULN); assay type: in vivo, human; conditions: for Percent of Hepatic Events: of 14 events
From the text: As noted in Example 2, hepatic events in the sample populations were distributed 71% (17/24) for AGI-1067 treated patients and 29% (7/24) for patients receiving placebo resulting in an AGI-1067 to placebo ratio of 2.4.
There were 14 patients in the combined dataset who had hepatic events using the ALT >5× ULN plus TBL <2× ULN or ALT >3× ULN plus TBL >2× ULN criteria. As noted in Example 2, at randomization the ratio of AGI-1067 to placebo patients was 1.3, the same value as the randomization ratio for AGI-1067 compared to placebo.
When patients with elevated ApoA1 levels or ALT levels of greater than 2.0 times ULN were excluded, 10 hepatic events were eliminated. Of these, 90% were in the AGI-1067 treatment arm. Of the remaining 14 hepatic events, 8 were in AGI-1067 treated patients while 6 were in placebo treated patients. These hepatic events were distributed 57% (8/14) for AGI-1067 patients and 43% (6/14) for patients receiving placebo.
Table 4 summarizes the impact of the exclusionary criteria (primarily ApoA1 elevation) on the number, frequency distribution and ratio of hepatic events for the AGI-1067 and placebo groups in the 3270 type 2 diabetes mellitus patients contained in the datasets.
ALT >2× ULN could also be used as a secondary indicator for exclusion of patients.

[3] = Large clinical study (more than 6000 pts, 2 year average exposure) in patients with pre-existing coronary artery disease; assay type: in vivo
[4] = in vivo; cited from earlier work
[5] = before use of the risk identification tool, 75 mg
[6] = before use of the risk identification tool, 150 mg
[7] = before use of the risk identification tool, 300 mg
[8] = before use of the risk identification tool, AGI-1067 all doses
[9] = using the risk identification tool, 75 mg
[10] = using the risk identification tool, 150 mg
[11] = using the risk identification tool, 300 mg
[12] = using the risk identification tool, AGI-1067 all doses

## CC(C)(Sc1cc(C(C)(C)C)c(O)c(C(C)(C)C)c1)Sc1cc(C(C)(C)C)c(OC(=O)CCC(=O)O)c(C(C)(C)C)c1 [AGI-1067, monosuccinic acid ester of probucol]
[1]; 75 mg
  Number of Patients ALT 3X to ≦ 5X ULN With TBL ≦ 2X ULN: 3
[1]; 75 mg, share of 36 patients
  Percent of ALT Elevations: 8%
[1]; 150 mg
  Number of Patients ALT 3X to ≦ 5X ULN With TBL ≦ 2X ULN: 4
[1]; 150 mg, share of 36 patients
  Percent of ALT Elevations: 11%
[1]; 300 mg
  Number of Patients ALT 3X to ≦ 5X ULN With TBL ≦ 2X ULN: 10
[1]; 300 mg, share of 36 patients
  Percent of ALT Elevations: 28%
[1]; AGI-1067 all doses
  Number of Patients ALT 3X to ≦ 5X ULN With TBL ≦ 2X ULN: 17
[1]; AGI-1067 all doses, share of 36 patients with ALT 3X to ≦5X ULN
  Percent of ALT Elevations: 47%
[1]; before use of the risk identification tool
  Ratio 1067/Placebo Hepatic Events: 2.4
[1]; [5]
  Number of Hepatic Events ALT > 3X ULN Plus TBL > 2X ULN: 0
  Number of Hepatic Events ALT > 5X ULN With TBL ≦ 2X ULN: 4
  Number of Hepatic Events Total: 4
  Percent of Hepatic Events: 17%
[1]; [6]
  Number of Hepatic Events ALT > 3X ULN Plus TBL > 2X ULN: 0
  Number of Hepatic Events ALT > 5X ULN With TBL ≦ 2X ULN: 2
  Number of Hepatic Events Total: 2
  Percent of Hepatic Events: 8%
[1]; [7]
  Number of Hepatic Events ALT > 3X ULN Plus TBL > 2X ULN: 4
  Number of Hepatic Events ALT > 5X ULN With TBL ≦ 2X ULN: 7
  Number of Hepatic Events Total: 11
  Percent of Hepatic Events: 46%
[1]; [8]
  Number of Hepatic Events ALT > 3X ULN Plus TBL > 2X ULN: 4
  Number of Hepatic Events ALT > 5X ULN With TBL ≦ 2X ULN: 13
  Number of Hepatic Events Total: 17
  Percent of Hepatic Events: 71%
[1]; diabetes mellitus patients
  Incidence of ALT elevations 3X to ≦5X ULN versus placebo: comparable
[2]; 8/1851 patients
  Incidence of hepatic events after application of the exclusionary criteria: 0.4%
[2]; AGI-1067 all doses, versus before use of the tool
  Decrease (↓) of total number of hepatic events by using the risk identification tool: 53%
[2]; Baseline ApoA1
  Excluded hepatic events relative to placebo patients using Baseline ApoA1 as predictive biomarker: seven times more excluded hepatic events
[2]; Totals of all biomarkers
  Number of Hepatic Events Excluded: 9
[2]; biomarker Apo A1 > 165 mg/dl
  Number of Hepatic Events Excluded: 7
[2]; biomarker Baseline ALT > 2X ULN
  Number of Hepatic Events Excluded: 1
[2]; biomarker Month 1 ALT > 2X ULN
  Number of Hepatic Events Excluded: 1
[2]; exclusion of elevated ApoA1 or ALT > 2.0 times ULN
  Share of the 10 eliminated hepatic events that were in the AGI-1067 treatment arm: 90%
[2]; human, in vivo
  Number of hepatic events versus placebo arm after excluding patients with ApoA1 above ULN (165 mg/dl) before drug: achieved parity
[2]; using the risk identification tool
  Ratio 1067/Placebo Hepatic Events: 1.3
[2]; [9]
  Number of Hepatic Events ALT > 3X ULN Plus TBL > 2X ULN: 0
  Number of Hepatic Events ALT > 5X ULN With TBL ≦ 2X ULN: 2
  Number of Hepatic Events Total: 2
  Percent of Hepatic Events: 14%
[2]; [10]
  Number of Hepatic Events ALT > 3X ULN Plus TBL > 2X ULN: 0
  Number of Hepatic Events ALT > 5X ULN With TBL ≦ 2X ULN: 1
  Number of Hepatic Events Total: 1
  Percent of Hepatic Events: 7%
[2]; [11]
  Number of Hepatic Events ALT > 3X ULN Plus TBL > 2X ULN: 2
  Number of Hepatic Events ALT > 5X ULN With TBL ≦ 2X ULN: 3
  Number of Hepatic Events Total: 5
  Percent of Hepatic Events: 36%
[2]; [12]
  Number of Hepatic Events ALT > 3X ULN Plus TBL > 2X ULN: 2
  Number of Hepatic Events ALT > 5X ULN With TBL ≦ 2X ULN: 6
  Number of Hepatic Events Total: 8
  Percent of Hepatic Events: 57%
[3]; of 3078 patients randomized to AGI-1067, four in the placebo arm
  Number of patients demonstrating elevated ALT and bilirubin: eight
[3]; subset of patients with type 2 diabetes mellitus
  HbA1c levels: lower HbA1c levels
[3]; well-treated patients with pre-existing coronary artery disease
  Hard cardiovascular endpoints (composite of cardiovascular death, non-fatal MI and non-fatal stroke): reduce hard cardiovascular endpoints

## NNC(=O)c1ccncc1 [isoniazid]
[4]
  Serious hepatotoxicity, share of recipients: about 0.1%
